In patent publication US6770596B1, “Fused tricyclic compounds, process for their preparation, and herbicidal compositions containing them” (Ishihara Sangyo Kaisha Ltd., priority 2002, dated 2004):

Key:
Type in all cases: in vivo
[1] = test system: ivyleaf morningglory (Ipomoea hederacea, IPH); test: Post-emerge test, ivyleaf morningglory; conditions: 250 g ai/ha, 14 days after application, rating scale 0-100 (0 no damage, 100 complete death)
Summary of the method: (§1)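 Post-emergence spray, 8-1000 g ai/ha in acetone at 187 l/ha with 0.25% v/v non-ionic surfactant, applied to 2-3 leaf plants. Pots of sandy loam mix, greenhouse. Visual 0-100 injury rating at 14 DAT.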

[2] = test system: barnyardgrass (Echinachloa crus-galli, ECC); test: Pre-emerge test, barnyardgrass; conditions: 250 g ai/ha, 14 days after application, rating scale 0-100 (0 no damage, 100 complete death)
Summary of the method: (§2)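 Greenhouse pre-emergence screen: track-sprayer application of compounds in acetone at 187 l/ha, rates 8 g ai/ha to 1000 g ai/ha, one day after planting in sandy loam pots. Damage scored at 14 days, 0 (none) to 100 (all plants dead).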

[3] = test system: sicklepod (Cassia obtusifolia, CAO); test: Post-emerge test, sicklepod; conditions: 250 g ai/ha, 14 days after application, rating scale 0-100 (0 no damage, 100 complete death)
Summary of the method: as §1

[4] = test system: soybean (Glycine max L., var. Pella 86, SOY); test: Post-emerge test, crop damage soybean; conditions: post-emerge, 250 g ai/ha, 14 days after application, rating scale 0-100 (0 no damage, 100 complete death)
Summary of the method: as §1

[5] = test system: green foxtail (Setaria viridis, SEV); test: Post-emerge test, green foxtail; conditions: 250 g ai/ha, 14 days after application, rating scale 0-100 (0 no damage, 100 complete death)
Summary of the method: as §1

[6] = test system: field corn (Zea mays L., var. Dekalb 535, CORN); test: Pre-emerge test, crop damage field corn; conditions: pre-emerge, 250 g ai/ha, 14 days after application, rating scale 0-100 (0 no damage, 100 complete death)
Summary of the method: (§3)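 Scores at 14 days after treatment use a 0–100 scale, where 0 is no damage and 100 is death of all plants. Treatments were acetone solutions sprayed at 8–1000 g ai/ha onto soil sown one day prior.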

[7] = test system: wheat (Triticum aestivum); test: Post-emerge test, crop damage wheat; conditions: post-emerge, 250 g ai/ha, 14 days after application, rating scale 0-100 (0 no damage, 100 complete death)
Summary of the method: as §1

[8] = test system: large crabgrass (Digitaria sanguinalis, DIS); test: Post-emerge test, large crabgrass; conditions: 250 g ai/ha, 14 days after application, rating scale 0-100 (0 no damage, 100 complete death)
Summary of the method: as §1

[9] = test system: johnsongrass (Sorghum halepense, SOH); test: Pre-emerge test, johnsongrass; conditions: 250 g ai/ha, 14 days after application, rating scale 0-100 (0 no damage, 100 complete death)
Summary of the method: as §2

[10] = test system: soybean (Glycine max L., var. Pella 86, SOY); test: Pre-emerge test, crop damage soybean; conditions: pre-emerge, 250 g ai/ha, 14 days after application, rating scale 0-100 (0 no damage, 100 complete death)
Summary of the method: as §3

[11] = test system: upland rice (Oryza sp., var.Tebonnet, RICE); test: Post-emerge test, crop damage upland rice; conditions: post-emerge, 250 g ai/ha, 14 days after application, rating scale 0-100 (0 no damage, 100 complete death)
Summary of the method: as §1

[12] = test system: redroot pigweed (Amaranthus retroflexus, AMR); test: Post-emerge test, redroot pigweed; conditions: 250 g ai/ha, 14 days after application, rating scale 0-100 (0 no damage, 100 complete death)
Summary of the method: as §1

[13] = test system: common ragweed (Ambrosia artemisiifolia L., AML); test: Post-emerge test, common ragweed; conditions: 250 g ai/ha, 14 days after application, rating scale 0-100 (0 no damage, 100 complete death)
Summary of the method: as §1

[14] = test system: velvetleaf (Abutilon theophrasti, ABT); test: Post-emerge test, velvetleaf; conditions: 250 g ai/ha, 14 days after application, rating scale 0-100 (0 no damage, 100 complete death)
Summary of the method: as §1

[15] = test system: velvetleaf (Abutilon theophrasti, ABT); test: Pre-emerge test, velvetleaf; conditions: 250 g ai/ha, 14 days after application, rating scale 0-100 (0 no damage, 100 complete death)
Summary of the method: as §2

[16] = test system: wheat (Triticum aestivum); test: Pre-emerge test, crop damage wheat; conditions: pre-emerge, 250 g ai/ha, 14 days after application, rating scale 0-100 (0 no damage, 100 complete death)
Summary of the method: as §3

[17] = test system: common ragweed (Ambrosia artemisiifolia L., AML); test: Pre-emerge test, common ragweed; conditions: 250 g ai/ha, 14 days after application, rating scale 0-100 (0 no damage, 100 complete death)
Summary of the method: as §2

[18] = test system: cocklebur (Xanthium strumariunt, XAS); test: Pre-emerge test, cocklebur; conditions: 250 g ai/ha, 14 days after application, rating scale 0-100 (0 no damage, 100 complete death)
Summary of the method: as §2

[19] = test system: cocklebur (Xanthium strumariunt, XAS); test: Post-emerge test, cocklebur; conditions: 250 g ai/ha, 14 days after application, rating scale 0-100 (0 no damage, 100 complete death)
Summary of the method: as §1

[20] = test system: field corn (Zea mays L., var. Dekalb 535, CORN); test: Post-emerge test, crop damage field corn; conditions: post-emerge, 250 g ai/ha, 14 days after application, rating scale 0-100 (0 no damage, 100 complete death)
Summary of the method: as §1

[21] = test system: green foxtail (Setaria viridis, SEV); test: Pre-emerge test, green foxtail; conditions: 250 g ai/ha, 14 days after application, rating scale 0-100 (0 no damage, 100 complete death)
Summary of the method: as §2

[22] = test system: redroot pigweed (Amaranthus retroflexus, AMR); test: Pre-emerge test, redroot pigweed; conditions: 250 g ai/ha, 14 days after application, rating scale 0-100 (0 no damage, 100 complete death)
Summary of the method: as §2

[23] = test system: large crabgrass (Digitaria sanguinalis, DIS); test: Pre-emerge test, large crabgrass; conditions: 250 g ai/ha, 14 days after application, rating scale 0-100 (0 no damage, 100 complete death)
Summary of the method: as §2

[24] = test system: sicklepod (Cassia obtusifolia, CAO); test: Pre-emerge test, sicklepod; conditions: 250 g ai/ha, 14 days after application, rating scale 0-100 (0 no damage, 100 complete death)
Summary of the method: as §2

[25] = test system: lambsquarters (Chenopodium album, CHA); test: Post-emerge test, lambsquarters; conditions: 250 g ai/ha, 14 days after application, rating scale 0-100 (0 no damage, 100 complete death)
Summary of the method: as §1

[26] = test system: upland rice (Oryza sp., var.Tebonnet, RICE); test: Pre-emerge test, crop damage upland rice; conditions: pre-emerge, 250 g ai/ha, 14 days after application, rating scale 0-100 (0 no damage, 100 complete death)
Summary of the method: as §3

[27] = test system: barnyardgrass (Echinachloa crus-galli, ECC); test: Post-emerge test, barnyardgrass; conditions: 250 g ai/ha, 14 days after application, rating scale 0-100 (0 no damage, 100 complete death)
Summary of the method: as §1

[28] = test system: johnsongrass (Sorghum halepense, SOH); test: Post-emerge test, johnsongrass; conditions: 250 g ai/ha, 14 days after application, rating scale 0-100 (0 no damage, 100 complete death)
Summary of the method: as §1

[29] = test system: ivyleaf morningglory (Ipomoea hederacea, IPH); test: Pre-emerge test, ivyleaf morningglory; conditions: 250 g ai/ha, 14 days after application, rating scale 0-100 (0 no damage, 100 complete death)
Summary of the method: as §2

[30] = test system: lambsquarters (Chenopodium album, CHA); test: Pre-emerge test, lambsquarters; conditions: 250 g ai/ha, 14 days after application, rating scale 0-100 (0 no damage, 100 complete death)
Summary of the method: as §2

SMILES | Post-emerge Herbicidal Activity IPH (phytotoxicity rating) [1] | Pre-emerge Herbicidal Activity ECC (phytotoxicity rating) [2] | Post-emerge Herbicidal Activity CAO (phytotoxicity rating) [3] | Post-emerge crop damage SOY (phytotoxicity rating) [4] | Post-emerge Herbicidal Activity SEV (phytotoxicity rating) [5] | Pre-emerge crop damage CORN (phytotoxicity rating) [6] | Post-emerge crop damage WHEAT (phytotoxicity rating) [7] | Post-emerge Herbicidal Activity DIS (phytotoxicity rating) [8] | Pre-emerge Herbicidal Activity SOH (phytotoxicity rating) [9] | Pre-emerge crop damage SOY (phytotoxicity rating) [10] | Post-emerge crop damage RICE (phytotoxicity rating) [11] | Post-emerge Herbicidal Activity AMR (phytotoxicity rating) [12] | Post-emerge Herbicidal Activity AML (phytotoxicity rating) [13] | Post-emerge Herbicidal Activity ABT (phytotoxicity rating) [14] | Pre-emerge Herbicidal Activity ABT (phytotoxicity rating) [15] | Pre-emerge crop damage WHEAT (phytotoxicity rating) [16] | Pre-emerge Herbicidal Activity AML (phytotoxicity rating) [17] | Pre-emerge Herbicidal Activity XAS (phytotoxicity rating) [18] | Post-emerge Herbicidal Activity XAS (phytotoxicity rating) [19] | Post-emerge crop damage CORN (phytotoxicity rating) [20] | further results
O=C1Nc2c(-c3ncc(C(F)(F)F)cc3Cl)c(F)cc3c2N(C(=O)CO3)C1c1ccccc1 (stereo not drawn) [1-68] | 60 | 98 | 0 | 10 | 0 | 5 | 0 | 0 | 99 | 5 | 0 | 100 | 40 | 80 | 99 | 30 | 65 | 30 | 60 | 10 | Pre-emerge Herbicidal Activity SEV (phytotoxicity rating) [21]: 100; Pre-emerge Herbicidal Activity AMR (phytotoxicity rating) [22]: 100; Pre-emerge Herbicidal Activity DIS (phytotoxicity rating) [23]: 100; Pre-emerge Herbicidal Activity CAO (phytotoxicity rating) [24]: 40; Post-emerge Herbicidal Activity CHA (phytotoxicity rating) [25]: 100; Pre-emerge crop damage RICE (phytotoxicity rating) [26]: 0; Post-emerge Herbicidal Activity ECC (phytotoxicity rating) [27]: 0; Post-emerge Herbicidal Activity SOH (phytotoxicity rating) [28]: 0; Pre-emerge Herbicidal Activity IPH (phytotoxicity rating) [29]: 40; Pre-emerge Herbicidal Activity CHA (phytotoxicity rating) [30]: 100
Cc1nn(-c2c(F)cc3c4c2NC(=O)CN4C(=O)CO3)c(=O)n1C(F)F [1-73] | 55 | 100 | 0 | 60 | 50 | 100 | 0 | 0 | 100 | 60 | 75 | 30 | 50 | 65 | 100 | 90 | 80 | 65 | 40 | 0 | Pre-emerge Herbicidal Activity SEV (phytotoxicity rating) [21]: 100; Pre-emerge Herbicidal Activity AMR (phytotoxicity rating) [22]: 100; Pre-emerge Herbicidal Activity DIS (phytotoxicity rating) [23]: 100; Pre-emerge Herbicidal Activity CAO (phytotoxicity rating) [24]: 90; Post-emerge Herbicidal Activity CHA (phytotoxicity rating) [25]: 90; Pre-emerge crop damage RICE (phytotoxicity rating) [26]: 100; Post-emerge Herbicidal Activity ECC (phytotoxicity rating) [27]: 0; Post-emerge Herbicidal Activity SOH (phytotoxicity rating) [28]: 0; Pre-emerge Herbicidal Activity IPH (phytotoxicity rating) [29]: 100; Pre-emerge Herbicidal Activity CHA (phytotoxicity rating) [30]: 100
Cc1nn(-c2c(F)cc3c4c2NC(=O)C(C)N4C(=O)CO3)c(=O)n1C(F)F (stereo not drawn) [1-74] | 0 | 98 | 0 | 0 | 65 | 100 | 0 | 0 | 99 | 95 | 0 | 60 | 55 | 55 | 100 | 98 | 80 | 98 | 10 | 0 | Pre-emerge Herbicidal Activity SEV (phytotoxicity rating) [21]: 100; Pre-emerge Herbicidal Activity AMR (phytotoxicity rating) [22]: 98; Pre-emerge Herbicidal Activity DIS (phytotoxicity rating) [23]: 99; Pre-emerge Herbicidal Activity CAO (phytotoxicity rating) [24]: 75; Post-emerge Herbicidal Activity CHA (phytotoxicity rating) [25]: 65; Pre-emerge crop damage RICE (phytotoxicity rating) [26]: 99; Post-emerge Herbicidal Activity ECC (phytotoxicity rating) [27]: 0; Post-emerge Herbicidal Activity SOH (phytotoxicity rating) [28]: 0; Pre-emerge Herbicidal Activity IPH (phytotoxicity rating) [29]: 95; Pre-emerge Herbicidal Activity CHA (phytotoxicity rating) [30]: 99
CCC1C(=O)Nc2c3c(cc(F)c2-n2nc(C)n(C(F)F)c2=O)OCC(=O)N31 (stereo not drawn) [1-75] | 80 | 100 | 0 | 55 | 0 | 100 | 0 | 0 | 100 | 98 | 40 | 0 | 45 | 90 | 100 | 10 | 85 | 85 | 20 | 0 | Pre-emerge Herbicidal Activity SEV (phytotoxicity rating) [21]: 99; Pre-emerge Herbicidal Activity AMR (phytotoxicity rating) [22]: 50; Pre-emerge Herbicidal Activity DIS (phytotoxicity rating) [23]: 100; Pre-emerge Herbicidal Activity CAO (phytotoxicity rating) [24]: 65; Post-emerge Herbicidal Activity CHA (phytotoxicity rating) [25]: 80; Pre-emerge crop damage RICE (phytotoxicity rating) [26]: 99; Post-emerge Herbicidal Activity ECC (phytotoxicity rating) [27]: 0; Post-emerge Herbicidal Activity SOH (phytotoxicity rating) [28]: 0; Pre-emerge Herbicidal Activity IPH (phytotoxicity rating) [29]: 99; Pre-emerge Herbicidal Activity CHA (phytotoxicity rating) [30]: 100
